Assay results: patent publication US20240316008A1, “TREATMENT OF SYSTEMIC IMMUNE ACTIVATION SYNDROMES” (TRANQUIS THERAPEUTICS, INC., priority 2020, published 2024)

Experiments:
PGC-1α = PGC-1α protein expression in BV2 microglia cells (Western blot); type: cell-based, murine; settings: 24 hours
Procedure: Frozen BV2 murine microglia cells were thawed and propagated in complete media (RPMI, 10% heat-inactivated FBS, 1% L-glutamine, 1% Pen-Strep) until the growth rate reached log phase. For protein expression analysis, DMSO (1:1000 final dilution) or TQS-168 in DMSO (1:1000 final dilution) at 20 μM was added to cell cultures. After 24 hours stimulation, supernatant was discarded and cell lysis buffer (Cell Signal) was added to adherent cells to extract protein. Total protein was quantified and normalized across all samples by BCA assays. Two replicates of untreated cultures and three replicates of TQS-168-treated cultures were investigated, with each replicate containing lysates from 5,000,000 BV2 myeloid cells. PGC1α expression was detected by Western Blot using an anti-PGC-1α antibody (SC13067, Santa Cruz Biotechnology, 1:500 dilution). Anti-β-actin antibody (SC8432, Santa Cruz Biotechnology, 1:2000 dilution) was used to quantify beta-actin, a housekeeping gene whose expression level is not know to be affected by TQS-168. […] Total protein was quantified and normalized across all samples by BCA assays. PGC-1α was subsequently detected by Western Blot using an anti-PGC-1α antibody (SC13067, Santa Cruz Biotechnology, 1:500 dilution). β-actin was detected with an anti-β-actin antibody (SC8432, Santa Cruz Biotechnology, 1:2000 dilution). […]

Ppargc1α mRNA = Ppargc1α mRNA expression in BV2 cells (rt-PCR); type: cell-based, murine; settings: concentrations ranging from 0.7 μM to 20 μM, normalized to beta-actin mRNA
Excerpt: RNA was processed for real-time PCR.

TNFα = TNFα release by LPS-stimulated BV2 cells (ELISA); type: cell-based, murine; settings: BV-2 cells, 10 μM, ELISA at 24 hours
Procedure: First, 100 μl of supernatant was removed from Cell Plate and transferred to a Dilution Plate, which was then centrifuged at 216×g for 10 minutes to remove particulates. The dilution plate was either assayed immediately or aliquots were taken and stored at stored at ≤−20° C.; repeated freeze-thaw cycles were avoided.
Next, a standard curve was prepared by first pipetting 900 ul of Calibrator Diluent RD5K into the 700 pg/mL tube, followed by 200 μl of the appropriate calibrator diluent in the remaining tubes. The stock solution was used to produce a dilution. The resulting tubes were then thoroughly mixed. The Mouse TNFα Standard (700 pg/mL) served as the high standard, and the Calibrator Diluent RD5T served as the zero standard at 0 pg/ml.
Assay Diluent RD1-63 (50 ul) was then added to the center of each well and mixed before and during its use. Then, 50 ul of either standard, control, or sample was added to the center of each well, and covered with adhesive strip. The plate was then mixed for 1 minute and incubated for 2 hours at room temperature.
Each well was then aspirated and washed by filling each well with Wash Buffer (400 ul) five times. After the last wash, the remaining Wash Buffer was removed by aspirating or decanting. TNFα […] conjugate (100 ul) was then added to each well, covered with adhesive strip, incubated for 2 hours at room temperature, and washed and/or aspirated five times.
Substrate solution (100 ul) was then added to each well, incubated in the dark for 30 minutes at room temperature, followed by addition of 100 μl of Stop Solution and mixed. The optical density of each well was determined within 30 minutes by using a microplate reader set to 450 nm.
Plates were read on a Spectrostar Nano machine with built-in MARS data analysis at […].
For TNFα ELISA, the BV-2 cells were very responsive to low concentrations of LPS. A concentration range of 0.1 ng/ml to 1,000 ng/ml was tested. 0.3 ng/ml LPS produced enough TNFα release (8-10 fold above background) from these cells after 22 hours stimulation without saturating the linear range of the ELISA detection system. If higher LPS concentrations are used for stimulating BV-2 cells, a […] is advised to stay within the linear range of the detection system. The current TNFα protocol uses 10,000 cells per well in 96 well plate. A cell count titration can optimize S/B ratio. Miniaturization from 96 well to 384 well is also feasible with this assay.
The TNFα ELISA assay is described in Example 5. The IL-6 assay is described below.

[1] = system: 12 human primary cell-based systems; assay: Eurofins BioMAP Diversity PLUS panel
Excerpt: TQS-168 was characterized in the Eurofins BioMAP Diversity PLUS panel of 12 human primary cell-based systems (FIG. 12). These systems are designed to model complex human tissue and disease biology of the vasculature, skin (fibrosis), pulmonary and immune systems and provide test agent characterization in an unbiased way across a broad set of systems modeling various human disease states. Quantitative measurements of biomarker activities across this broad panel, along with comparative analysis of the biological activities of known bioactive agents in the BioMAP reference database were used to predict the safety, efficacy and function of TQS-168. A BioMAP profile in the Diversity PLUS Panel was performed for TQS-168 at concentrations of 20 μM, 6.7 μM, 2.2 μM, and 740 nM. The Y-axis represents a log-transformed ratio of the biomarker readouts for the test agent-treated sample (n=1) over vehicle controls (average of ≥6 vehicle controls from the same plate). The grey region around the Y-axis represents the 95% significance envelope that was generated from the upper and lower bound values of historical vehicle controls. Biomarker activities were annotated when two or more consecutive concentrations change in the same direction relative to vehicle controls, were outside of the significance envelope, and have at least one concentration with an effect size >20% (|log10 ratio|>0.1). Biomarker key activities were described as modulated if these activities increase in some systems, but decreased in others.

IL-6 = assay: Spontaneous IL-6 release of PBMCs from an ALS patient (ELISA); type: cell-based, human; settings: 1 μM, 24 hours, no LPS, versus medium only
Procedure: PBMCs from an ALS patient were used for this study. Whole blood samples were collected from the patient and processed for PBMC isolation with Ficoll gradient method. PBMC samples were stored in liquid nitrogen at […] for subsequent analysis of IL-6 production.
Frozen PBMC samples were thawed and rested at 37° C. […] Therefore PBMC stimulation by LPS was not required to evaluate the effects of TQS-168 and metabolite TQS-621 on IL-6 production. PBMC samples (5×10^5 cells per well) were incubated with medium only, TQS-168 (1 μM) or TQS-621 (1 μM). After 24 hours, supernatants were collected for quantification of IL-6 levels by ELISA.

[2] = profile at 20 μM, 6.7 μM, 2.2 μM, 740 nM

Structure (SMILES): CC(C)(C)c1ccc(-c2nc3ccccc3[nH]2)cc1 [TQS-168, 2-(4-tert-butylphenyl)-1H-benzimidazole]
- PGC-1α protein expression (PGC-1α; BV2 cells, concentrations ranging from 0.7 μM to 20 μM): induces
- PGC-1α protein expression (PGC-1α; BV2 microglia cells, 20 μM, Western blot): induces
- Ppargc1α mRNA expression (Ppargc1α mRNA): induces
- suppression of TNFα production (TNFα; 0.3 ng/ml LPS): about 25%
- inhibition at 10 µM (TNFα; Mus musculus, 1 ng/ml LPS, read-out: inhibition of TNFα production): ~35%
- T-cell proliferation, IgG, TNFα, and IL-8 ([1]; 6.7 μM): inhibit
- decrease in sIgG and sTNFα in B and T cells as compared to metformin hydrochloride at 5000 μM ([1]; 6.7 μM): greater decrease
- decrease in sIgG, sIL-17A, sIL-17F, sIL-2, sTNFα, sIL-6 from B and T cells ([1]; 20 μM, highest concentration of the profile): greatest decrease
- inflammatory markers Eotaxin-3, P-selectin, IL-8, PGE2, IP-10 [1, 2]: decreased
- proliferation of endothelial, B cells, T cells, coronary artery SMC & fibroblasts [1, 2]: anti-proliferative
- tissue remodeling markers uPAR, MMP1, tPA, alpha-SMA, Collagen III [1, 2]: modulated
- spontaneous release of IL-6 (amount of IL-6 produced) (IL-6): reduction
